Columns and labels:
[1] = test system: panel of 50 human kinases; experiment: Kinase panel activity; assay type: biochemical; details: 1 μM
Procedure: Kinase panel activity: Activity of compounds at 1 μM was assessed against a panel of 50 kinase enzymes (MKK1, JNK1, p38a MAPK, RSK1, PDK1, PKBa, SGK1, S6K1, PKA, ROCK 2, PRK2, PKCa, PKD1, MSK1, CAMKKb, CAMK1, SmMLCK, CHK2, GSK3b, PLK1, Aurora B, LKB1, AMPK (hum), MARK3, CK1δ, CK2, DYRK1A, NEK6, TBK1, PIM1, SRPK1, EF2K, HIPK2, PAK4, MST2, MLK3, TAK1, IRAK4, RIPK2, TTK, Src, Lck, BTK, JAK3, SYK, EPH-A2, HER4, IGF-1R, TrkA, VEG-FR) carried out by the MRC Protein Phosphorylation and Ubiquitinylation Unit at the University of Dundee, Dundee, DD1 5EH, UK.

in vivo = details: rat
[2] = rat, in vivo
[3] = Stability in phosphate buffer and simulated gastric fluid; assay type: physicochemical; details: for degradation in simulated gastric fluid: pH 1.2, 37°C for 3 h; for degradation in phosphate buffer: pH 8.0, 37°C for 3 h
Kv1.5 = molecular target: T1, Kv1.5 (Homo sapiens, UniProt P22460); experiment: Ion channel activity (Metrion), Kv1.5, QPatch; assay type: cell-based; details: dose-response up to 10 μM
T1 construct: Metrion biosciences
Procedure: (§1) Ion channel activity. Activity of compounds against ion channels was assessed by Metrion biosciences, Cambridge, CB21 6AD, UK in dose-response experiments (n = 2) up to 10 μM compound concentration with standards & equipment as listed for each ion channel (hERG–verapamil—QPatch, Nav1.5 –amitryptiline—QPatch, Kv1.5 –transDSC—QPatch, Cav1.2 –nimodipine—Flex).

Stability in plasma = assay type: in vitro ADME; details: 37°C for 3 h
Nav1.5 = molecular target: T2, Nav1.5 (Homo sapiens, UniProt Q14524); experiment: Ion channel activity (Metrion), Nav1.5, QPatch; assay type: cell-based; details: dose-response up to 10 μM
T2 construct: Metrion biosciences
Procedure: as §1

hERG = molecular target: T3, hERG (Homo sapiens, UniProt Q12809); experiment: Ion channel activity (Metrion), hERG, QPatch; assay type: cell-based; details: dose-response up to 10 μM
T3 construct: Metrion biosciences
Procedure: as §1

[4] = test system: panel of 38 in vitro toxicity targets (receptors, channels, transporters); experiment: Broad selectivity panel (Cerep), radioligand receptor binding assays; details: 1uM
Procedure: Selectivity was assessed at Cerep (Celle l’ Evescault, France), as described in the Cerep catalog, against a panel of in vitro radioligand receptor binding assays with 38 different receptors, channels, and transporters selected as targets to avoid for safety reasons (beta 1, beta 2, NMDA, MAO-A, 5-HT1B, CCK1 (CCKA), BZD (central), delta (DOP), A2A, CB1, CB2, D1, D2S, ETA, H1, H2, M1, M2, M3, 5-HT1A, 5-HT2A, 5-HT2B, 5-HT3, GR, AR, V1a, kappa (KOP), mu (MOP), alpha 1A, alpha 2A, Ca2+ channel, Potassium Channel, Kv channel, Na+ channel, N neuronal alpha 4 beta 2, norepinephrine transporter, dopamine transporter, 5-HT transporter). The specific ligand binding to the receptors is defined as the difference between the total binding, and the nonspecific binding determined in the presence of an excess of unlabelled ligand.

Cav1.2 = molecular target: T4, Cav1.2 (Homo sapiens, UniProt Q13936); experiment: Ion channel activity (Metrion), Cav1.2, Flex; assay type: cell-based; details: dose-response up to 10 μM
T4 construct: Metrion biosciences
Procedure: as §1

S. mansoni worms = experiment: In vitro potency assay with varied FBS level; assay type: cell-based; details: Schistosoma mansoni
Text: (§2) These early experiments also allowed us to use the PK Tool to predict the dose to use in the mouse efficacy models. As part of the prediction we need to recognise that the measured in vitro potency will be different from that in whole blood. […] They also display high protein binding in plasma, assay media and microsomal stability assays. […] Measurement of binding of LSHTM-3520 in the assay medium gave a free fraction, Fu of 0.0014. An experiment was run using LSHTM-3520 to determine whether the potency shift on varying the plasma protein level in the in vitro assay accords with prediction.

[5] = Observation of mice for adverse clinical signs / ill effects; assay type: in vivo; details: 200 mg/kg single oral dose, one mouse 400 mg/kg
Procedure: Prior to in vivo efficacy experiments, a single animal was given a dose of drug (using the same formulation) that was twice as large as that planned for use in the efficacy experiments and was observed periodically for adverse clinical signs for 24h by trained veterinarians. Adverse clinical signs checked include postural defect, vocalization, oculo-nasal discharge, hypersalivation, change in activity, abnormal gait, respiration and pulse, piloerection, loss of pupillary reflex, eyelid reflex, chromodacryorrhea, reaction to handling, tremor, convulsions, prostration, diarrhoea, cachexia, emaciation. […] In vivo efficacy was assessed in female CD1 mice using methods based on those previously described. Mice were infected subcutaneously with 150 cercariae. Test compounds were suspended in 7% Tween-80 / 3% Ethanol / double distilled water and drug dispersal was facilitated by vortexing and using a sonicating water bath (Formulation “Aqueous”). Alternatively, drugs were first dissolved in DMSO, then diluted with corn oil to give a 1:19 DMSO:corn oil solution/suspension of test compound (Formulation “Corn oil”). […] Worms were recovered by portal perfusion with citrate saline 8–14 days post treatment and counted. Differences between groups relative to the non-drug treated controls were assessed for statistical significance by Student’s unpaired t-test using GraphPad Prism Software. […]

[6] = Binding in the assay medium; assay type: in vitro ADME
Text: as §2

T2 sequence (Q14524 whole entry): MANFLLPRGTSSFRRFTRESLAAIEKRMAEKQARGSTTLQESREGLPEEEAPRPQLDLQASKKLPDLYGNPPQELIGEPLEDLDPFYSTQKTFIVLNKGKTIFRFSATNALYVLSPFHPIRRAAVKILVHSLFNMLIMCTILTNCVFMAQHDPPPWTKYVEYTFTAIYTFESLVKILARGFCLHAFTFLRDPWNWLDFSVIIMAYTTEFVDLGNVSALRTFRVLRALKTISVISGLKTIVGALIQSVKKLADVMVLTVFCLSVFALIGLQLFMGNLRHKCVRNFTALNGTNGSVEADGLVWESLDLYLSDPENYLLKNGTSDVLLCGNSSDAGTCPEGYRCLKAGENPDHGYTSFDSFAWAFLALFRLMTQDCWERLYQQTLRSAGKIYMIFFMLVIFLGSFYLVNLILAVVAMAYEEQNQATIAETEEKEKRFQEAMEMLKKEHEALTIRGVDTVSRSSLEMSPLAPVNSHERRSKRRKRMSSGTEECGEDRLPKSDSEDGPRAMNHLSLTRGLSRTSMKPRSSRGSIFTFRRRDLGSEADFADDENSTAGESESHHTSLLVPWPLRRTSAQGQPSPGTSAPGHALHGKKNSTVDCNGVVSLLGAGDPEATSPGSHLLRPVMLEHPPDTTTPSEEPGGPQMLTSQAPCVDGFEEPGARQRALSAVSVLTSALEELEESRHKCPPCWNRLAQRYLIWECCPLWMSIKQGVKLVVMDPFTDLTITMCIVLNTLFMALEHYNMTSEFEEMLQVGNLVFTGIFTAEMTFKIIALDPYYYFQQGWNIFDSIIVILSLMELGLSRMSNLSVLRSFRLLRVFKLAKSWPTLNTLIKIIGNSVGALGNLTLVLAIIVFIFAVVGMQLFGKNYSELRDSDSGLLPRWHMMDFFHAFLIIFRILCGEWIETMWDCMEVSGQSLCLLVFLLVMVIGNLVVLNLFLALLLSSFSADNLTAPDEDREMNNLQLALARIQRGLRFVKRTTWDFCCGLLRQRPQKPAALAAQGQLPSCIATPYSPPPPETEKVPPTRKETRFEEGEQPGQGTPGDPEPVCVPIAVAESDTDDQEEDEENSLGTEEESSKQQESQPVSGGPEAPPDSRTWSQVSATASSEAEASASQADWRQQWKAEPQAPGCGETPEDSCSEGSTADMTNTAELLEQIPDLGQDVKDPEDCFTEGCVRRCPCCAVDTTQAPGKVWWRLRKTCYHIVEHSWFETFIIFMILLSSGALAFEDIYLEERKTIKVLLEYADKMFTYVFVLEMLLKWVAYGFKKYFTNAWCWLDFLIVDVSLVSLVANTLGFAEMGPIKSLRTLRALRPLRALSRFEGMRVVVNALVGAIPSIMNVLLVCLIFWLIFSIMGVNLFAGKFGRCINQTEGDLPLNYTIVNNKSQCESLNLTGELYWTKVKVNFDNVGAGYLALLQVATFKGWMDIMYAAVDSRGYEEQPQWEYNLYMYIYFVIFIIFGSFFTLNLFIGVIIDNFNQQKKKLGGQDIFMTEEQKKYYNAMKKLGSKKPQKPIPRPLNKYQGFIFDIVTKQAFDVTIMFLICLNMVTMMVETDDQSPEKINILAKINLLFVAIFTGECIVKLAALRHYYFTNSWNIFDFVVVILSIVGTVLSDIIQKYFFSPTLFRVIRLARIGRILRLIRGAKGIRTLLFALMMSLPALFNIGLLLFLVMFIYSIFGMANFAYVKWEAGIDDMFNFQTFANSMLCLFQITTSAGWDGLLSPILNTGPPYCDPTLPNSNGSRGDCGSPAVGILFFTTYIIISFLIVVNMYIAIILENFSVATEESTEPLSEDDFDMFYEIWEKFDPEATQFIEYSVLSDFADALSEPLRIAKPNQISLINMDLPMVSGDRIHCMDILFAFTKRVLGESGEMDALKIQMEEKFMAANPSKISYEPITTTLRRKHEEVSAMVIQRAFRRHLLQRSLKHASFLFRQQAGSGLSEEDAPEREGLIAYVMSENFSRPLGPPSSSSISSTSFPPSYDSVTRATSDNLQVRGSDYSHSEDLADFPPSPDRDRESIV
T1 sequence (P22460 whole entry): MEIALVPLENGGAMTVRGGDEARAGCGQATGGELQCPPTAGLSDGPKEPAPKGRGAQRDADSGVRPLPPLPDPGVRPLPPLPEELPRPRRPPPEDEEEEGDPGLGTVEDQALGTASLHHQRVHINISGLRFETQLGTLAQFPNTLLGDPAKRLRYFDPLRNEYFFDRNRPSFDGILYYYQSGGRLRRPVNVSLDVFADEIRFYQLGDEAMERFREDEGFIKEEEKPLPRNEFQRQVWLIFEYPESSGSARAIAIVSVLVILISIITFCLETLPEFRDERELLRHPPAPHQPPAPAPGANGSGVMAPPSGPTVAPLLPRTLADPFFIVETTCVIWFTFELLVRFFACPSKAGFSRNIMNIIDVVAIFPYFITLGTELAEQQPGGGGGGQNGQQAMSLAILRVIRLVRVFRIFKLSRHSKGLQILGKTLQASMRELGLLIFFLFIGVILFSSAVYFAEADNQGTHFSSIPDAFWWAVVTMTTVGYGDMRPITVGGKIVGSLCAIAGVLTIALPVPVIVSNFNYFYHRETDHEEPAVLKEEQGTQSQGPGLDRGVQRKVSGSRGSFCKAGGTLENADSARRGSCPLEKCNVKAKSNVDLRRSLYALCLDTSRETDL
T3 sequence (Q12809 whole entry): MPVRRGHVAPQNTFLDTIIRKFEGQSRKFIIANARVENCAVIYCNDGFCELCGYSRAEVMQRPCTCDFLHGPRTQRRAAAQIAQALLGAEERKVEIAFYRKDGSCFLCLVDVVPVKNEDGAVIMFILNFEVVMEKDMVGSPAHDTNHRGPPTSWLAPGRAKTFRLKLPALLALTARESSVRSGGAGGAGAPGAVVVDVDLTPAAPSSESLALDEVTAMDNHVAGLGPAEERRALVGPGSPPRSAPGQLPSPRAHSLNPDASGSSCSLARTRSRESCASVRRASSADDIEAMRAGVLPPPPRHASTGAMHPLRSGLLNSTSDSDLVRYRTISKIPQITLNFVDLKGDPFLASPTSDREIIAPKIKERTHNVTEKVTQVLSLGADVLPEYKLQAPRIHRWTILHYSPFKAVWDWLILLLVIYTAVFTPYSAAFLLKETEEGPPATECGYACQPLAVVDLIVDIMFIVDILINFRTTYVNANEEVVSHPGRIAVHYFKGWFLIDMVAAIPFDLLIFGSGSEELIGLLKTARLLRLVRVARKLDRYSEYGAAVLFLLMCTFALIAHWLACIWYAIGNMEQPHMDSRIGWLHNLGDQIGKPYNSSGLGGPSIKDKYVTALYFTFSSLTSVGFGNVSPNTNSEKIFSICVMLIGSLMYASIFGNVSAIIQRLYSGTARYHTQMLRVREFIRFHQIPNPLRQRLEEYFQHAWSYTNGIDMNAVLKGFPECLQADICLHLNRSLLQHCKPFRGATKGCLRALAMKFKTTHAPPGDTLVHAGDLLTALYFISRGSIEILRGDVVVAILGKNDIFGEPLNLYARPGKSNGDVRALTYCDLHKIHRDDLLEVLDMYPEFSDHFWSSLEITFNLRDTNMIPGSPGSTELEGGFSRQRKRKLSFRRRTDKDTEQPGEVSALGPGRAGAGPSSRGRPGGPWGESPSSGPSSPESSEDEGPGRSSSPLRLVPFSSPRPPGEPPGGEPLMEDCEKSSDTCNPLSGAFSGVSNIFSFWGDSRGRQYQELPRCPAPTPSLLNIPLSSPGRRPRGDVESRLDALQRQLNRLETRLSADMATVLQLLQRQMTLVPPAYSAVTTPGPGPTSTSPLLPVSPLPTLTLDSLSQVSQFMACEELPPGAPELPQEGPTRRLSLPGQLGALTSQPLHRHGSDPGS

| Compound | inhibition, panel of 50 human kinases [1] | degradation in simulated gastric fluid [3] | degradation in phosphate buffer [3] | degradation in plasma (Stability in plasma) | inhibition of Kv1.5 (Kv1.5) | inhibition of Nav1.5 (Nav1.5) | inhibition of hERG (hERG) | inhibition of Cav1.2 (Cav1.2) | further results |
| --- | --- | --- | --- | --- | --- | --- | --- | --- | --- |
| CC(C)c1cc(-c2cn3c(-c4ccc5[nH]ncc5c4F)c(C4CC4)nc3cn2)ccc1F [LSHTM-3686] | – | No degradation | No degradation | No degradation | Neither LSHTM-3645 nor LSHTM-3686 showed any inhibition | Neither LSHTM-3645 nor LSHTM-3686 showed any inhibition | Neither LSHTM-3645 nor LSHTM-3686 showed any inhibition | Neither LSHTM-3645 nor LSHTM-3686 showed any inhibition | – |
| CC(C)c1nc2cnc(-c3ccc(F)c(C(F)(F)F)c3)cn2c1-c1c(F)cc(O)cc1F [LSHTM-3520] | ≤ 25% | – | – | – | – | – | – | – | EC50 (S. mansoni worms; 3% FBS): 8 nM; EC50 (S. mansoni worms; 10% FBS): 24.4 nM; EC50 (S. mansoni worms; 30% FBS): 75 nM; issues observed with the animals exposed [5]: no issues observed; fraction unbound ([6]; bovine, assay medium of the in vitro potency assay, read-out: free fraction, Fu): 0.0014; recovery ([6]; bovine, in vitro potency assay medium with Foetal Bovine Serum, in vitro assay medium): 69.3%; Assay medium %binding ([6]; in vitro assay medium): 99.86% |

Now from value to molecule, other results behind:

| inhibition, panel of 50 human kinases [1] | degradation in simulated gastric fluid [3] | degradation in phosphate buffer [3] | degradation in plasma (Stability in plasma) | Compound | inhibition of Kv1.5 (Kv1.5) | inhibition of Nav1.5 (Nav1.5) | inhibition of hERG (hERG) | inhibition of Cav1.2 (Cav1.2) | further results |
| --- | --- | --- | --- | --- | --- | --- | --- | --- | --- |
| ≤ 25% | – | – | – | Fc1ccc(-c2cn3c(-c4ccc5[nH]ncc5c4F)c(C(F)(F)F)nc3cn2)cc1C(F)(F)F [LSHTM-3642, 3-(4-fluoro-1H-indazol-5-yl)-6-(4-fluoro-3-(trifluoromethyl)phenyl)-2-(trifluoromethyl)imidazo[1,2-a]pyrazine] | – | – | – | – | AUC(0-inf) (in vivo; iv, 1 mg/kg): 5000 ng·h/mL; Vd (in vivo; iv, 1 mg/kg): 8.8 L/kg; bioavailability (in vivo; po, 10 mg/kg): 67%; Clobs ([2]; iv, 1 mg/kg): 3.33 mL/min/kg; Plasma conc @ 24 h after oral dose ([2]; po, 10 mg/kg, 24 h): 357 ng/mL |
| ≤ 25% | – | – | – | CC(C)c1nc2cnc(-c3ccc(F)c(C(F)(F)F)c3)cn2c1-c1ccc2[nH]ncc2c1F [LSHTM-3604] | – | – | – | – | – |
| – | No degradation | No degradation | No degradation | Fc1ccc(-c2cn3c(-c4ccc5[nH]ncc5c4F)c(C(F)(F)F)nc3cn2)cc1C(F)(F)C(F)(F)F [LSHTM-3645] | Neither LSHTM-3645 nor LSHTM-3686 showed any inhibition | Neither LSHTM-3645 nor LSHTM-3686 showed any inhibition | Neither LSHTM-3645 nor LSHTM-3686 showed any inhibition | Neither LSHTM-3645 nor LSHTM-3686 showed any inhibition | activity against panel of 38 in vitro toxicity targets [4]: no reproduceable activity |
